What was measured:
Type in all cases: in vivo
[1] = system: Corn; test: Pre-emergence treatment, phytotoxicity to corn; settings: 500 g/ha, 4 weeks after spraying, scale 0 to 10 (0: no effects, 10: complete death)
Protocol: (§1) A rectangular plastic pot having a surface area of 300 cm^2 was filled with sandy loam soil and mixed bed soil which were mixed at a ratio of 1:1, and then, barnyardrass (Echinochloa crusgalli), large crabgrass (Digitaria sanguinalis), blackgrass (Alopecurus myosuroides), and annual bluegrass (Poa annua), which are grass weeds, were seeded thereto. In a pot that was prepared as described above, seeds of corn, soybean, cotton, wheat, and rice were seeded. The pots were irrigated, and one day after, chemicals were sprayed thereto. The spraying was performed by using a track sprayer (R&D Sprayer, USA) equipped with a Teejet 8002 (Spraying Systems Co., USA) nozzle, and a spraying amount was adjusted at 300 L/ha. A spraying solution was prepared by dissolving test materials or references in acetone and adding the same amount of 0.2%(v/v) tween 20 aqueous solution thereto. Application rates were 500, 250, 125, and 62.5 g/ha. The pots were placed in a greenhouse in which during day, the temperature was maintained at a temperature of 25 to 30° C., and during night, the temperature was maintained at a temperature of 15 to 25° C., and the pots were periodically irrigated. Four weeks after the spraying the test materials or References, effects and phytotoxicity of the respective weeds and crops were evaluated in a scale of 0 to 10 (0: no effects, 10: complete death), and results thereof are shown in Table 4 below.

[2] = system: Soybean; test: Pre-emergence treatment, phytotoxicity to soybean; settings: 500 g/ha, 4 weeks after spraying, scale 0 to 10 (0: no effects, 10: complete death)
Protocol: as §1

[3] = system: Cotton; test: Pre-emergence treatment, phytotoxicity to cotton; settings: 500 g/ha, 4 weeks after spraying, scale 0 to 10 (0: no effects, 10: complete death)
Protocol: as §1

[4] = system: Wheat; test: Pre-emergence treatment, phytotoxicity to wheat; settings: 500 g/ha, 4 weeks after spraying, scale 0 to 10 (0: no effects, 10: complete death)
Protocol: as §1

[5] = system: Rice; test: Pre-emergence treatment, phytotoxicity to rice; settings: 500 g/ha, 4 weeks after spraying, scale 0 to 10 (0: no effects, 10: complete death)
Protocol: as §1

[6] = system: Echinochloa crusgalli; test: Pre-emergence treatment, herbicidal efficacy on barnyardgrass; settings: 4 weeks after spraying
Protocol: as §1

[7] = system: Digitaria sanguinalis; test: Pre-emergence treatment, herbicidal efficacy on large crabgrass; settings: 4 weeks after spraying, scale 0 to 10
Protocol: as §1

[8] = system: Poa annua; test: Pre-emergence treatment, herbicidal efficacy on annual bluegrass; settings: 4 weeks after spraying, scale 0 to 10
Protocol: as §1

[9] = system: Alopecurus myosuroides; test: Pre-emergence treatment, herbicidal efficacy on blackgrass; settings: 4 weeks after spraying, scale 0 to 10
Protocol: as §1

[10] = system: Corn; test: Post-emergence treatment, phytotoxicity to corn; settings: post-emergence (about 3 leaf stage), 1,000 g/ha, 4 weeks after spraying, scale 0 to 10 (0: no effects, 10: complete death)
Protocol: as §1
(§2) Pots containing crops and weeds were prepared in the same manner as in Example 7, and then, in the second week in which crops and weeds entered into about 3 leaf stage, the test materials and the references were sprayed thereto in the same manner as described above. The rates were 1,000, 500, 250, and 125 g/ha. Four weeks after the spraying of the test materials or the references, herbicidal efficacy and phytotoxicity to the respective weeds and crops were evaluated in a scale of 0 to 10 (0: no effects, 10: complete death).

[11] = system: Soybean; test: Post-emergence treatment, phytotoxicity to soybean; settings: post-emergence (about 3 leaf stage), 1,000 g/ha, 4 weeks after spraying, scale 0 to 10 (0: no effects, 10: complete death)
Protocol: as §1, §2

[12] = system: Cotton; test: Post-emergence treatment, phytotoxicity to cotton; settings: post-emergence (about 3 leaf stage), 1,000 g/ha, 4 weeks after spraying, scale 0 to 10 (0: no effects, 10: complete death)
Protocol: as §1, §2

[13] = system: Wheat; test: Post-emergence treatment, phytotoxicity to wheat; settings: post-emergence (about 3 leaf stage), 1,000 g/ha, 4 weeks after spraying, scale 0 to 10 (0: no effects, 10: complete death)
Protocol: as §1, §2

[14] = system: Rice; test: Post-emergence treatment, phytotoxicity to rice; settings: post-emergence (about 3 leaf stage), 1,000 g/ha, 4 weeks after spraying, scale 0 to 10 (0: no effects, 10: complete death)
Protocol: as §1, §2

[15] = system: Echinochloa crusgalli; test: Post-emergence treatment, herbicidal efficacy on barnyardgrass; settings: 4 weeks after spraying, scale 0 to 10
Protocol: as §1, §2

[16] = system: Digitaria sanguinalis; test: Post-emergence treatment, herbicidal efficacy on large crabgrass; settings: 4 weeks after spraying, scale 0 to 10
Protocol: as §1, §2

[17] = system: Poa annua; test: Post-emergence treatment, herbicidal efficacy on annual bluegrass; settings: 4 weeks after spraying, scale 0 to 10
Protocol: as §1, §2

[18] = system: Alopecurus myosuroides; test: Post-emergence treatment, herbicidal efficacy on blackgrass; settings: 4 weeks after spraying, scale 0 to 10
Protocol: as §1, §2

[19] = 500 g/ha, scale 0 to 10 (0: no effects, 10: complete death)

CC1(COCc2c(F)cccc2F)CC(c2ccccc2Br)=NO1 (stereo not drawn) [Compound 3, 3-(2-bromophenyl)-5-((2,6-difluorobenzyloxy)methyl)-5-methyl-4,5-dihydroisoxazole]
Phytotoxicity, Corn [1]: 2
Phytotoxicity, Soybean [2]: 0
Phytotoxicity, Cotton [3]: 0
Phytotoxicity, Wheat [4]: 0
Phytotoxicity, Rice [5]: 0
Herbicidal efficacy, Echinochloa crusgalli ([6]; 62.5 g/ha, scale 0 to 10): 10
Herbicidal efficacy, Echinochloa crusgalli ([6]; 125 g/ha, scale 0 to 10): 10
Herbicidal efficacy, Echinochloa crusgalli ([6]; 250 g/ha, scale 0 to 10): 10
Herbicidal efficacy, Echinochloa crusgalli [6, 19]: 10
Herbicidal efficacy, Digitaria sanguinalis ([7]; 62.5 g/ha): 10
Herbicidal efficacy, Digitaria sanguinalis ([7]; 125 g/ha): 10
Herbicidal efficacy, Digitaria sanguinalis ([7]; 250 g/ha): 10
Herbicidal efficacy, Digitaria sanguinalis ([7]; 500 g/ha): 10
Herbicidal efficacy, Poa annua ([8]; 62.5 g/ha): 4
Herbicidal efficacy, Poa annua ([8]; 125 g/ha): 7
Herbicidal efficacy, Poa annua ([8]; 250 g/ha): 8
Herbicidal efficacy, Poa annua ([8]; 500 g/ha): 10
Herbicidal efficacy, Alopecurus myosuroides ([9]; 62.5 g/ha): 4
Herbicidal efficacy, Alopecurus myosuroides ([9]; 125 g/ha): 4
Herbicidal efficacy, Alopecurus myosuroides ([9]; 250 g/ha): 5
Herbicidal efficacy, Alopecurus myosuroides ([9]; 500 g/ha): 7

CC1(COCc2ccccc2F)CC(c2ccccc2[N+](=O)[O-])=NO1 (stereo not drawn) [Reference A]
Phytotoxicity, Corn [1]: 0
Phytotoxicity, Soybean [2]: 0
Phytotoxicity, Cotton [3]: 0
Phytotoxicity, Wheat [4]: 0
Phytotoxicity, Rice [5]: 0
Herbicidal efficacy, Echinochloa crusgalli ([6]; 62.5 g/ha, scale 0 to 10): 0
Herbicidal efficacy, Echinochloa crusgalli ([6]; 125 g/ha, scale 0 to 10): 2
Herbicidal efficacy, Echinochloa crusgalli ([6]; 250 g/ha, scale 0 to 10): 6
Herbicidal efficacy, Echinochloa crusgalli [6, 19]: 10
Herbicidal efficacy, Digitaria sanguinalis ([7]; 62.5 g/ha): 0
Herbicidal efficacy, Digitaria sanguinalis ([7]; 125 g/ha): 2
Herbicidal efficacy, Digitaria sanguinalis ([7]; 250 g/ha): 6
Herbicidal efficacy, Digitaria sanguinalis ([7]; 500 g/ha): 10
Herbicidal efficacy, Poa annua ([8]; 62.5 g/ha): 0
Herbicidal efficacy, Poa annua ([8]; 125 g/ha): 2
Herbicidal efficacy, Poa annua ([8]; 250 g/ha): 5
Herbicidal efficacy, Poa annua ([8]; 500 g/ha): 9
Herbicidal efficacy, Alopecurus myosuroides ([9]; 62.5 g/ha): 0
Herbicidal efficacy, Alopecurus myosuroides ([9]; 125 g/ha): 0
Herbicidal efficacy, Alopecurus myosuroides ([9]; 250 g/ha): 3
Herbicidal efficacy, Alopecurus myosuroides ([9]; 500 g/ha): 10
Phytotoxicity, Corn [10]: 0
Phytotoxicity, Soybean [11]: 1
Phytotoxicity, Cotton [12]: 0
Phytotoxicity, Wheat [13]: 0
Phytotoxicity, Rice [14]: 0
Herbicidal efficacy, Echinochloa crusgalli ([15]; post-emergence, 125 g/ha): 0
Herbicidal efficacy, Echinochloa crusgalli ([15]; post-emergence, 250 g/ha): 2
Herbicidal efficacy, Echinochloa crusgalli ([15]; post-emergence, 500 g/ha): 5
Herbicidal efficacy, Echinochloa crusgalli ([15]; post-emergence, 1,000 g/ha): 7
Herbicidal efficacy, Digitaria sanguinalis ([16]; post-emergence, 125 g/ha): 0
Herbicidal efficacy, Digitaria sanguinalis ([16]; post-emergence, 250 g/ha): 1
Herbicidal efficacy, Digitaria sanguinalis ([16]; post-emergence, 500 g/ha): 4
Herbicidal efficacy, Digitaria sanguinalis ([16]; post-emergence, 1,000 g/ha): 5
Herbicidal efficacy, Poa annua ([17]; post-emergence, 125 g/ha): 0
Herbicidal efficacy, Poa annua ([17]; post-emergence, 250 g/ha): 0
Herbicidal efficacy, Poa annua ([17]; post-emergence, 500 g/ha): 3
Herbicidal efficacy, Poa annua ([17]; post-emergence, 1,000 g/ha): 5
Herbicidal efficacy, Alopecurus myosuroides ([18]; post-emergence, 125 g/ha): 0
Herbicidal efficacy, Alopecurus myosuroides ([18]; post-emergence, 250 g/ha): 0
Herbicidal efficacy, Alopecurus myosuroides ([18]; post-emergence, 500 g/ha): 0
Herbicidal efficacy, Alopecurus myosuroides ([18]; post-emergence, 1,000 g/ha): 2

CC1(COCc2c(F)cccc2Cl)CC(c2ccccc2Cl)=NO1 (stereo not drawn) [Reference B]
Phytotoxicity, Corn [1]: 0
Phytotoxicity, Soybean [2]: 0
Phytotoxicity, Cotton [3]: 0
Phytotoxicity, Wheat [4]: 0
Phytotoxicity, Rice [5]: 0
Herbicidal efficacy, Echinochloa crusgalli ([6]; 62.5 g/ha, scale 0 to 10): 2
Herbicidal efficacy, Echinochloa crusgalli ([6]; 125 g/ha, scale 0 to 10): 5
Herbicidal efficacy, Echinochloa crusgalli ([6]; 250 g/ha, scale 0 to 10): 7
Herbicidal efficacy, Echinochloa crusgalli [6, 19]: 10
Herbicidal efficacy, Digitaria sanguinalis ([7]; 62.5 g/ha): 0
Herbicidal efficacy, Digitaria sanguinalis ([7]; 125 g/ha): 4
Herbicidal efficacy, Digitaria sanguinalis ([7]; 250 g/ha): 8
Herbicidal efficacy, Digitaria sanguinalis ([7]; 500 g/ha): 9
Herbicidal efficacy, Poa annua ([8]; 62.5 g/ha): 2
Herbicidal efficacy, Poa annua ([8]; 125 g/ha): 4
Herbicidal efficacy, Poa annua ([8]; 250 g/ha): 8
Herbicidal efficacy, Poa annua ([8]; 500 g/ha): 10
Herbicidal efficacy, Alopecurus myosuroides ([9]; 62.5 g/ha): 0
Herbicidal efficacy, Alopecurus myosuroides ([9]; 125 g/ha): 0
Herbicidal efficacy, Alopecurus myosuroides ([9]; 250 g/ha): 3
Herbicidal efficacy, Alopecurus myosuroides ([9]; 500 g/ha): 10
Phytotoxicity, Corn [10]: 0
Phytotoxicity, Soybean [11]: 2
Phytotoxicity, Cotton [12]: 0
Phytotoxicity, Wheat [13]: 0
Phytotoxicity, Rice [14]: 0
Herbicidal efficacy, Echinochloa crusgalli ([15]; post-emergence, 125 g/ha): 0
Herbicidal efficacy, Echinochloa crusgalli ([15]; post-emergence, 250 g/ha): 0
Herbicidal efficacy, Echinochloa crusgalli ([15]; post-emergence, 500 g/ha): 1
Herbicidal efficacy, Echinochloa crusgalli ([15]; post-emergence, 1,000 g/ha): 7
Herbicidal efficacy, Digitaria sanguinalis ([16]; post-emergence, 125 g/ha): 0
Herbicidal efficacy, Digitaria sanguinalis ([16]; post-emergence, 250 g/ha): 5
Herbicidal efficacy, Digitaria sanguinalis ([16]; post-emergence, 500 g/ha): 6
Herbicidal efficacy, Digitaria sanguinalis ([16]; post-emergence, 1,000 g/ha): 8
Herbicidal efficacy, Poa annua ([17]; post-emergence, 125 g/ha): 0
Herbicidal efficacy, Poa annua ([17]; post-emergence, 250 g/ha): 1
Herbicidal efficacy, Poa annua ([17]; post-emergence, 500 g/ha): 4
Herbicidal efficacy, Poa annua ([17]; post-emergence, 1,000 g/ha): 6
Herbicidal efficacy, Alopecurus myosuroides ([18]; post-emergence, 125 g/ha): 0
Herbicidal efficacy, Alopecurus myosuroides ([18]; post-emergence, 250 g/ha): 0
Herbicidal efficacy, Alopecurus myosuroides ([18]; post-emergence, 500 g/ha): 0
Herbicidal efficacy, Alopecurus myosuroides ([18]; post-emergence, 1,000 g/ha): 3

From patent publication US9439432B2, “Phenylisoxazoline-based compound having herbicidal activity and use thereof” (MOGHU RESEARCH CENTER LTD, priority 2011, dated 2016)
